Values joined by “and” are separate entries in the source; they are usually repeats but may differ in a detail not shown here. Equal values may be shown once. Active and inactive are the calls of the source.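 The calls were made as follows: active = compounds giving half or more protection of infected cells from virus-caused growth loss, again on retest; inactive = the rest.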
System: CEM cells HIV-1 protection, formazan growth assay
Test: NCI AIDS Antiviral Assay
Conditions: for IC50: measured here: growth of uninfected CEM cells
How it was run: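 Five concentrations of each compound were applied to infected and uninfected human CEM cells. Protection from HIV-1 was judged from growth measured with a soluble formazan assay.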

| Structure (SMILES) | EC50 [µM] | IC50 | outcome |
| --- | --- | --- | --- |
| COc1ccc(N=Nc2c(-c3ccccc3)nn(C(=O)CC(=O)Nc3cccc(Cl)c3)c2-c2ccccc2)cc1 | > 18.2 | > 18.2 µM |  |
| CC1(C)C[C@H]2[C@H](O)C(CO)=C3C(=O)[C@@H](O)[C@]3(C)[C@H]2C1 |  |  | inactive |
| [N-]=N[N+]#I1OC(C(F)(F)F)(C(F)(F)F)c2ccccc21 |  |  | inactive |
| COc1cc(C2=NN(C)C(c3ccc([N+](=O)[O-])o3)C2)cc(OC)c1OC (stereo not given) | > 83.2 | 32.4 µM |  |
| COc1cc(N=Nc2ccccc2)ccc1NCS(=O)(=O)O | > 200 | 174 µM |  |
| C=CCSCn1ncc2ccc([N+](=O)[O-])cc21 | > 200 | 33.9 µM |  |
| CN(C)CC/C(=N\Nc1ccc(Cl)cc1Cl)c1ccccc1 |  |  | inactive |
| CCC[CH2][Sn]1([CH2]CCC)[O]C(=O)c2cccc(OC)c2[O]1 |  |  | inactive |
| COc1ccc(C(=O)Sc2ccccc2C(=O)Nc2ccc(S(=O)(=O)NC(C)=O)cc2)cc1 | 22.4 | > 100 µM |  |
| COc1ccc(N(C)CN(C)c2nc(N(C)C)nc(N(C)C)n2)cc1 | > 200 | 36.3 µM |  |
| CCOC(=O)CCn1cnc(N)n1 |  |  | inactive |
| CC12CC(C#N)(C#N)C(C#N)(CO1)C(=N)O2 (stereo not given) | > 200 | 42.7 µM |  |
| CCc1cc2c(c3c1CCCC3)CC1(Cc3ccc(C(=O)OC)cc3C1)C2 (stereo not given) | > 200 | > 200 µM |  |
| [Au+].[Au+].[Au+].[c-]1nccn1Cc1ccccc1.[c-]1nccn1Cc1ccccc1.[c-]1nccn1Cc1ccccc1 | > 3.55 | > 3.55 µM |  |
| O=C1Nc2ccccc2S/C1=C/c1ccccc1 | > 20.4 | > 20.4 µM |  |
| COC1/C=C/OC2(C)Oc3c(C)c(O)c4c(O)c(c(/C=N/N5C(C)CN(Cc6ccc(C)cc6)CC5C)c(O)c4c3C2=O)NC(=O)C(C)=C/C=C/C(C)C(O)C(C)C(O)C(C)C(OC(C)=O)C1C (stereo not given) | > 200 | 3.89 µM |  |
| CCc1cc(-c2cccc3ccccc23)c(C#N)c(=S)[nH]1 | > 200 | 32.4 µM |  |
| CC1(C)CN=C(c2ccc3ccccc3c2O)N1 | > 200 | > 200 µM |  |

| Structure (SMILES) | EC50 [µM] | IC50 | outcome |
| --- | --- | --- | --- |
| CCc1nnc(CC)n1-n1c(Cc2ccccc2)n[nH]c1=O | > 200 | > 200 µM |  |
| COc1cc2c(cc1O)C1C(O2)c2cc3c(cc2OC1(C)C)OC(C)(C)CC3 (stereo not given) | > 200 | 28.8 µM |  |
| CC1=CC(C)=Nc2ccc(Cl)cc2N1 | > 200 | 91.2 µM and > 200 µM |  |
| COc1ccc(-c2ccccc2)c(N/N=C2\CCCNC2=O)c1 |  |  | inactive |
| Cc1cc2c(C(C)C)c(O)c(O)c(C=O)c2c(O)c1-c1c(C)cc2c(C(C)C)c(O)c(O)c(C=O)c2c1O | > 200 | 1.23 µM | inactive |
| O=S(=O)(SC1=NCCN1)c1ccccc1 | 105 | 302 µM |  |
| Cc1ccc(S(=O)(=O)NC(=O)C2S(=O)(=O)OCCOS2(=O)=O)cc1 | > 3890 | 77.6 µM |  |
| CCOC(=O)c1ccc(Nc2nc3ccccc3nc2C(=O)OCC)cc1 | > 200 | > 200 µM |  |
| Nc1ccc2c(O)cc(=O)[nH]c2n1 | > 200 | > 200 µM |  |
| CC(=O)Cc1cc(=O)c2c(C)cc(O)c(C3OC(CO)C(O)C(O)C3O)c2o1 (stereo not given) | 31.6 | 316 µM |  |
| O=C1CCCC/C(=C/c2ccccc2)N1 |  |  | inactive |
| CCOC(=O)NC(Nc1cc(Cl)ccc1OC)(C(F)(F)F)C(F)(F)F | > 200 | 102 µM |  |
| O=[N+]([O-])c1cccc(S(=O)(=O)c2cccc([N+](=O)[O-])c2)c1 | > 200 | > 200 µM |  |
| O=c1[nH]c2ccc(Cl)cc2c2oc(-c3ccccc3)nc12 |  |  | inactive |
| Nc1ccn(CCO)c(=O)n1 | > 1620 | > 1620 µM |  |
| COc1cc(OC)c2nc(C)c3c(c2c1)NCC3 | > 200 | 3.98 µM |  |
| CC(=NC1C2CC3CC(C2)CC1C3)c1ccc(N=NC2C(=O)NN=C2C)cc1 (stereo not given) | > 10 | > 10 µM |  |
| Cn1c2c(O)c(O)ccc2c(=O)c2c(O)cc3c(c21)C=CC(C)(C)O3 | > 200 | > 200 µM |  |

Source: PubChem BioAssay AID179 (DTP/NCI, 2004)
